Assays:
human mAChR M1 [1] = target: T1, human mAChR M1 (Homo sapiens, UniProt P11229); assay: mAChR M1 cell-based functional assay (calcium mobilization), PAM mode: increase in the EC20 acetylcholine response
T1 sequence (P11229 1-460): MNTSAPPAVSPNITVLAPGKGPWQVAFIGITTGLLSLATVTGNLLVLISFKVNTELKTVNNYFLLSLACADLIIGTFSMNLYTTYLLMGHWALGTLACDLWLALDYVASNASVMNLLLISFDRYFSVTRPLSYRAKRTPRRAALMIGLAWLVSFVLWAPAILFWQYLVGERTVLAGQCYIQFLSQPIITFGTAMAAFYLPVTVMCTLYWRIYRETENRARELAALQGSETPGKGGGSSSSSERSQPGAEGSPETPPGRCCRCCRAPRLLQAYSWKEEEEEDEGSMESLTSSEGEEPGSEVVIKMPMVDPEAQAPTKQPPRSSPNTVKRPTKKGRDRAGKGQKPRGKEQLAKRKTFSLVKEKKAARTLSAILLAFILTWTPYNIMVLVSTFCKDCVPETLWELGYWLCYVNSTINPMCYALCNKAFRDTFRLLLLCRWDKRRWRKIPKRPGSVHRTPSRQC
Method in brief: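 PAM readout is the concentration-dependent rise in the EC20 acetylcholine calcium signal, fitted to a four-parameter logistic (EC50, Emax). Compounds were preincubated from 4 s before ACh at 144 s (EC20) and 230 s (EC80). hM1-expressing CHO-K1 cells loaded with Fluo-4, FDSS ratio read.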

human mAChR M1 [2] = target: T1, human mAChR M1; assay: mAChR M1 cell-based functional assay (calcium mobilization), agonist mode: compound alone, Emax relative to acetylcholine maximum; details: for EC50 / Agonist Activity Human M1 EC50: human mAChR M1; for Emax: relative to the maximum for acetylcholine
Method in brief: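 Agonist activity is the concentration-dependent rise in intracellular calcium (Fluo-4, 1 Hz read) after compound addition, measured before any acetylcholine was added, in stable hM1 CHO-K1 cells. Curves were 11-point, 1:3 dilutions fitted by four-parameter logistic. Emax is given as a fraction of maximal acetylcholine response.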

Compound | EC50 (human mAChR M1 [1]) | Emax (human mAChR M1 [1]) | EC50 (human mAChR M1 [2]) | Emax (human mAChR M1 [2]) | Agonist Activity Human M1 EC50 (human mAChR M1 [2])
[2H]C1([2H])c2ncc(OCCc3ccccn3)cc2C(=O)N1Cc1c(F)cc(-c2cccc3nn(C([2H])([2H])[2H])cc23)cc1F [Compound 126, 6-(2,6-difluoro-4-(2-(methyl-d3)-2H-indazol-4-yl)benzyl)-3-(2-(pyridin-2-yl)ethoxy)-6,7-dihydro-5H-pyrrolo[3,4-b]pyridin-5-one-7,7-d2] | 423 nM | 65% | ≥ 10000 nM | 14% | –
[2H]C1([2H])c2ncccc2C(=O)N1Cc1c(F)cc(-c2ccc(OC3CCOC3)c3nn(C([2H])([2H])[2H])cc23)cc1F (stereo not drawn) [Compound 128, 6-(2,6-difluoro-4-(2-(methyl-d3)-7-((tetrahydrofuran-3-yl)oxy)-2H-indazol-4-yl)benzyl)-6,7-dihydro-5H-pyrrolo[3,4-b]pyridin-5-one-7,7-d2] | 428 nM | 63% | 6070 nM | 18% | –
[2H]C1([2H])c2ncccc2C(=O)N1Cc1c(F)cc(-c2ccc(O)c3nn(C([2H])([2H])[2H])cc23)cc1F [Compound 132, 6-(2,6-difluoro-4-(7-hydroxy-2-(methyl-d3)-2H-indazol-4-yl)benzyl)-6,7-dihydro-5H-pyrrolo[3,4-b]pyridin-5-one-7,7-d2] | 195 nM | 77% | 7930 nM | 47% | –
[2H]C1([2H])c2ncccc2C(=O)N1Cc1c(F)cc(-c2ccc(OC(C)COC)c3nn(C)cc23)cc1F (stereo not drawn) [Compound 133, 6-(2,6-difluoro-4-(7-((1-methoxypropan-2-yl)oxy)-2-methyl-2H-indazol-4-yl)benzyl)-6,7-dihydro-5H-pyrrolo[3,4-b]pyridin-5-one-7,7-d2] | 486 nM | 79% | ≥ 10000 nM | 35% | –
[2H]C1([2H])c2ncccc2C(=O)N1Cc1c(F)cc(-c2ccc(OCC3CCCO3)c3nn(C)cc23)cc1F (stereo not drawn) [Compound 134, 6-(2,6-difluoro-4-(2-methyl-7-((tetrahydrofuran-2-yl)methoxy)-2H-indazol-4-yl)benzyl)-6,7-dihydro-5H-pyrrolo[3,4-b]pyridin-5-one-7,7-d2] | 701 nM | 75% | ≥ 10000 nM | 23% | –
[2H]C1([2H])c2ncccc2C(=O)N1Cc1c(F)cc(-c2ccc(OCC3CCO3)c3nn(C)cc23)cc1F (stereo not drawn) [Compound 135, 6-(2,6-difluoro-4-(2-methyl-7-(oxetan-2-ylmethoxy)-2H-indazol-4-yl)benzyl)-6,7-dihydro-5H-pyrrolo[3,4-b]pyridin-5-one-7,7-d2] | 405 nM | 78% | 7520 nM | 26% | –
[2H]C1([2H])c2ncccc2C(=O)N1Cc1c(F)cc(-c2ccc(O[C@@H]3CCOC3)c3nn(C)cc23)cc1F [Compound 137, (R)-6-(2,6-difluoro-4-(2-methyl-7-((tetrahydrofuran-3-yl)oxy)-2H-indazol-4-yl)benzyl)-6,7-dihydro-5H-pyrrolo[3,4-b]pyridin-5-one-7,7-d2] | 256 nM | 74% | 7920 nM | 53% | –
[2H]C1([2H])c2ncccc2C(=O)N1Cc1c(F)cc(-c2ccc(OC3COC3)c3nn(C)cc23)cc1F [Compound 139, 6-(2,6-difluoro-4-(2-methyl-7-(oxetan-3-yloxy)-2H-indazol-4-yl)benzyl)-6,7-dihydro-5H-pyrrolo[3,4-b]pyridin-5-one-7,7-d2] | 188 nM | 75% | 5040 nM | 36% | –
[2H]C1([2H])c2ncccc2C(=O)N1Cc1ccc(-c2ccc(OCC3CCO3)c3nn(C)cc23)cc1F (stereo not drawn) [Compound 145, 6-(2-fluoro-4-(2-methyl-7-(oxetan-2-ylmethoxy)-2H-indazol-4-yl)benzyl)-6,7-dihydro-5H-pyrrolo[3,4-b]pyridin-5-one-7,7-d2] | 1070 nM | 73% | ≥ 10000 nM | 16% | –
[2H]C([2H])([2H])Oc1cnc2c(c1)C(=O)N(Cc1c(F)cc(-c3ccc(OC)c4nn(C)cc34)cc1F)C2([2H])[2H] [Compound 146, 6-(2,6-difluoro-4-(7-methoxy-2-methyl-2H-indazol-4-yl)benzyl)-3-(methoxy-d3)-6,7-dihydro-5H-pyrrolo[3,4-b]pyridin-5-one-7,7-d2] | 179 nM | 79% | 4640 nM | 28% | –

Results, then the molecule that gave them:

EC50 (human mAChR M1 [1]) | Emax (human mAChR M1 [1]) | EC50 (human mAChR M1 [2]) | Emax (human mAChR M1 [2]) | Agonist Activity Human M1 EC50 (human mAChR M1 [2]) | Compound
486 nM | 65% | 8400 nM | 21% | – | [2H]C1([2H])c2ncccc2C(=O)N1Cc1c(F)cc(-c2ccc(OC3CCOC3)c3nn(C)cc23)cc1F (stereo not drawn) [Compound 127, 6-(2,6-difluoro-4-(2-methyl-7-((tetrahydrofuran-3-yl)oxy)-2H-indazol-4-yl)benzyl)-6,7-dihydro-5H-pyrrolo[3,4-b]pyridin-5-one-7,7-d2]
1760 nM | 65% | – | 1% | Inactive | [2H]C1([2H])c2ncccc2C(=O)N1Cc1c(F)cc(-c2ccc(OCc3ccccc3)c3nn(C)cc23)cc1F [Compound 129, 6-(4-(7-(benzyloxy)-2-methyl-2H-indazol-4-yl)-2,6-difluorobenzyl)-6,7-dihydro-5H-pyrrolo[3,4-b]pyridin-5-one-7,7-d2]
123 nM | 82% | 4560 nM | 52% | – | [2H]C1([2H])c2ncccc2C(=O)N1Cc1c(F)cc(-c2ccc(O)c3nn(C)cc23)cc1F [Compound 130, 6-(2,6-Difluoro-4-(7-hydroxy-2-methyl-2H-indazol-4-yl)benzyl)-6,7-dihydro-5H-pyrrolo[3,4-b]pyridin-5-one-7,7-d2]
381 nM | 80% | – | 5% | Inactive | [2H]C1([2H])c2ncccc2C(=O)N1Cc1c(F)cc(-c2ccc(OCCN(C)C)c3nn(C)cc23)cc1F [Compound 131, 6-(4-(7-(2-(dimethylamino)ethoxy)-2-methyl-2H-indazol-4-yl)-2,6-difluorobenzyl)-6,7-dihydro-5H-pyrrolo[3,4-b]pyridin-5-one-7,7-d2]
245 nM | 74% | 8420 nM | 28% | – | [2H]C1([2H])c2ncccc2C(=O)N1Cc1c(F)cc(-c2ccc(O[C@H]3CCOC3)c3nn(C)cc23)cc1F [Compound 136, (S)-6-(2,6-difluoro-4-(2-methyl-7-((tetrahydrofuran-3-yl)oxy)-2H-indazol-4-yl)benzyl)-6,7-dihydro-5H-pyrrolo[3,4-b]pyridin-5-one-7,7-d2]
837 nM | 75% | ≥ 10000 nM | 11% | – | [2H]C1([2H])c2ncccc2C(=O)N1Cc1c(F)cc(-c2ccc(OCC3CC3)c3nn(C)cc23)cc1F [Compound 138, 6-(4-(7-(cyclopropylmethoxy)-2-methyl-2H-indazol-4-yl)-2,6-difluorobenzyl)-6,7-dihydro-5H-pyrrolo[3,4-b]pyridin-5-one-7,7-d2]
288 nM | 72% | 8200 nM | 54% | – | [2H]C1([2H])c2ncccc2C(=O)N1Cc1c(F)cc(-c2ccc(OC3CCOCC3)c3nn(C)cc23)cc1F [Compound 140, 6-(2,6-difluoro-4-(2-methyl-7-((tetrahydro-2H-pyran-4-yl)oxy)-2H-indazol-4-yl)benzyl)-6,7-dihydro-5H-pyrrolo[3,4-b]pyridin-5-one-7,7-d2]
122 nM | 73% | 8020 nM | 50% | – | [2H]C1([2H])c2ncc(O)cc2C(=O)N1Cc1c(F)cc(-c2cccc3nn(C([2H])([2H])[2H])cc23)cc1F [Compound 141, 6-(2,6-difluoro-4-(2-(methyl-d3)-2H-indazol-4-yl)benzyl)-3-hydroxy-6,7-dihydro-5H-pyrrolo[3,4-b]pyridin-5-one-7,7-d2]
215 nM | 81% | 6060 nM | 13% | – | [2H]C([2H])([2H])Oc1cnc2c(c1)C(=O)N(Cc1ccc(-c3ccc(OC)c4nn(C)cc34)cc1F)C2([2H])[2H] [Compound 142, 6-(2-fluoro-4-(7-methoxy-2-methyl-2H-indazol-4-yl)benzyl)-3-(methoxy-d3)-6,7-dihydro-5H-pyrrolo[3,4-b]pyridin-5-one-7,7-d2]
1270 nM | 74% | ≥ 10000 nM | 15% | – | [2H]C1([2H])c2ncccc2C(=O)N1Cc1ccc(-c2ccc(OC(C)COC)c3nn(C)cc23)cc1F (stereo not drawn) [Compound 143, 6-(2-fluoro-4-(7-((1-methoxypropan-2-yl)oxy)-2-methyl-2H-indazol-4-yl)benzyl)-6,7-dihydro-5H-pyrrolo[3,4-b]pyridin-5-one-7,7-d2]
751 nM | 75% | ≥ 10000 nM | 18% | – | [2H]C1([2H])c2ncccc2C(=O)N1Cc1ccc(-c2ccc(O[C@H]3CCOC3)c3nn(C)cc23)cc1F [Compound 144, (S)-6-(2-fluoro-4-(2-methyl-7-((tetrahydrofuran-3-yl)oxy)-2H-indazol-4-yl)benzyl)-6,7-dihydro-5H-pyrrolo[3,4-b]pyridin-5-one-7,7-d2]
